Source: US8841257B2, “Inhibitors of STAT3 and uses thereof” (Board of Regents, The University of Texas System, priority 2009, dated 2014)

Columns and labels:
[1] = tested on: MDA-MB-231 and SUM149 cells; assay: Vasculogenic mimicry exhibited by breast cancer cells; format: cell-based; settings: 5 μM in DMSO; 24 hours
Protocol: Cells were treated with 5 μM of the compounds from examples 1 and 8 formulated in DMSO or with DMSO alone as a control. To highlight the matrix-associated vascular channels that were formed, cells were stained with periodic acid-Schiff (PAS) reagent. Representative photographs were taken at 24 hours at —10 magnification. Each experiment was repeated 3 times.

Akt [2] = assay: EGF-stimulated Akt Ser473 phosphorylation in MDA-MB-468 cells; format: cell-based, human; settings: 1.5 hr prodrug, then EGF 100 ng/mL 30 min
Protocol: Effect of prodrug on the phosphorylation of STAT3, STAT5 and Akt in response to Epidermal Growth Factor stimulation. MDA-MB-468 cells were prepared as above. Prodrugs were prepared as 10 mM stock solutions in DMSO and aliquots were added to the culture media to give the correct final concentrations. After 1.5 hr EGF was added at 100 ng/mL. After 30 minutes cells were collected and lysed and proteins were separated by PAGE and transferred to three PVDF filters as above. The first filter was blocked with 5% bovine serum albumin and probed for total and phosphoStat3 as above. The second filter was probed for phosphoSer473Akt and total Akt using appropriate antibodies and similar detection procedures to those used for STAT3. The third filter was probed for phosphoTyr699 Stat5 and total STAT5 using appropriate antibodies and similar detection procedures to those used for STAT3.

[3] = tested on: MDA7, MDA-MB-231, SUM149, and SUM190; assay: Anchorage-independent growth in soft agar, four breast tumor models; format: cell-based; settings: MDA7, MDA-MB-231, SUM149, SUM190; 28 days
Protocol: Assay for anchorage-independent growth in soft agar Cells (5×10^5) were suspended in 1× DMEM/HEPES, 10% heat-inactivated FBS, 0.13% bicarbonate, and 0.33% BBL agar. The cells were plated on 1% base agar plates (60 mm) containing 1× DMEM/HEPES, 10% heat-inactivated FBS, and 1% BBL agar. Fresh serum-containing medium was fed to the cells on 3-day intervals. The dishes were then incubated at 37° C. with 5% CO2 for 28 days. The colonies that grew in soft agar were photographed and counted. Data are expressed as the number of colonies formed per plate±S.E.M. and three plates were counted per cell line.

STAT1 = target: T1, STAT1 (Homo sapiens, UniProt P42224); assay: IFNγ-stimulated STAT1 phosphorylation in MDA-MB-468 cells; format: cell-based; parameters: host or cells: MDA-MB-468 breast tumor cells; settings: for inhibition of Stat1 phosphorylation compared with Stat3 phosphorylation: 1.5 hr prodrug, then interferonγ 25 ng/mL 30 min; for fold less potent at inhibiting STAT1 than STAT3: MDA-MB-468 cells
T1 sequence (P42224 1-750): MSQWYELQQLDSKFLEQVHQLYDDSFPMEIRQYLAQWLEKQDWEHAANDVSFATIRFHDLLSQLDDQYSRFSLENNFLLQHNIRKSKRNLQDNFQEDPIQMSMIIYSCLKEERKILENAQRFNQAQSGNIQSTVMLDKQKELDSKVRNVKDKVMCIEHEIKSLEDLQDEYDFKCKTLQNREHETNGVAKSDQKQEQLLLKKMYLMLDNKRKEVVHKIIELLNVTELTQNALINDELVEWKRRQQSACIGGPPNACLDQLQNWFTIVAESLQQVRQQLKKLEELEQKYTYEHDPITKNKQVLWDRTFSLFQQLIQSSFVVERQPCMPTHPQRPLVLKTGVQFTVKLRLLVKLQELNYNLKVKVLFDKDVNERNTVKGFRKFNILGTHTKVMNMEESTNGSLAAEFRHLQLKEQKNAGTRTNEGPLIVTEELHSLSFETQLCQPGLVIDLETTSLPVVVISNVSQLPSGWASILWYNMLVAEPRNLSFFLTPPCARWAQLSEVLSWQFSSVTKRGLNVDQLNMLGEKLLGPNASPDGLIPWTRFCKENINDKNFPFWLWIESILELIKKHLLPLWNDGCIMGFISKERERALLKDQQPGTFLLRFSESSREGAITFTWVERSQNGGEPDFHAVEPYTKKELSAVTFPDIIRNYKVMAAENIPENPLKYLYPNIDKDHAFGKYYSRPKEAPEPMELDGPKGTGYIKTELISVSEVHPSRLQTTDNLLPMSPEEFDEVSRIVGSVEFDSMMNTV
Protocol: Effect of Prodrug on the phosphorylation of STAT1 in MDA-MB-468 breast tumor cells. MDA-MB-468 cells were prepared as above. Prodrugs were prepared as 10 mM stock solutions in DMSO and aliquots were added to the culture media to give the correct final concentrations. After 1.5 hr interferonγ was added at 25 ng/mL. After 30 minutes cells were collected and lysed and proteins were separated by PAGE and transferred to PVDF filters as above. Filters were probed for phosphoTyr701 Stat 1 and total Stat1 using appropriate antibodies and similar detection procedures to those used for Stat3.

Akt [4] = assay: pAkt levels in BT20 cells; format: cell-based; settings: 5 μM; BT20, constitutively activated Akt
[5] = tested on: SUM149 and MDA-MB-231 cells; assay: In vitro invasion of an artificial basement membrane; format: cell-based, human; settings: 72 hours
Protocol: Effect of prodrugs on in vitro invasion of an artificial basement membrane by human breast cancer cells. SUM149 and MDA-MB-231 cells were trypsinized, resuspended in serum-supplemented medium, and counted. Cells were then washed 3 times with serum-free medium. Plates (6-well) compatible with transwell inserts with 8 μm pore-size polycarbonate filters (Fisher Scientific) were coated with Matrigel in cold serum-free DMEM/F12 at a final concentration of 0.7 mg/mL and held at room temperature for 40 minutes. Cells (in 500 μL serum-free medium) were added into the transwell inserts and incubated for 72 hours in the absence or presence 5 μM prodrug in DMSO (1% by volume). For a control, 10% FBS was used to evaluate the baseline extent of invasion of the different cell lines. After incubation, noninvading cells on the upper surface of the filter were removed with cotton swabs. Cells that had passed through the pores onto the lower side of the filter were fixed, stained with Hema-3 stain (Fisher Scientific), and quantified. The experiments were performed in triplicate and were repeated twice.

[6] = tested on: MDA-MB-468 breast cancer cells; assay: Inhibition of growth of MDA-MB-468 breast cancer cells (MTT); format: cell-based, human; settings: 72 hr
Protocol: MDA MB 468 cells were plated at 1500 cells/well DMEM with high glucose 10% FBS. Cells were plated into 96 well plates (1500 cells per well) in. After 24 h the media was changed and cells were treated with DMSO or increasing amounts of the compound of Example 1 in DMSO. All wells had equal concentrations of DMSO. At 72 hr viability was measured with the MTT assay. […] In the mixtures of compounds of Examples 16, 22, 1 and 8. the total concentration of the drug is as listed on the X-axis. However, the mixtures are equimolar amounts of both drugs. For example, 5 μM of the drug is actually 2.5 μM of the compound of Example 16 and 2.5 μM the compound of Example 22. The same is true for the mixture of compounds Example 1 and Example 8.

Compound | vasculogenic mimicry [1] | Akt Ser473 phosphorylation after EGF (Akt [2]) | colony formation in soft agar, four breast tumor models [3] | inhibition of Stat1 phosphorylation compared with Stat3 phosphorylation (STAT1) | fold less potent at inhibiting STAT1 than STAT3 (STAT1) | pAkt levels (Akt [4]) | invasion through the artificial basement membrane ([5]; 5 μM in DMSO) | effectiveness in invasion assay relative to Example 8 ([5]; 5 μM) | potency in MTT viability assay relative to Example 1 [6]
C/C(=C\C(=O)N[C@H]1CCc2cccc3c2N(C1=O)[C@H](C(=O)N[C@H](C)CCC(N)=O)C3)c1ccc(C(F)(F)P(=O)(OCOC(=O)C(C)(C)C)OCOC(=O)C(C)(C)C)cc1 [Example 1, (2E)-3-[4-[[bis[(2,2-dimethyl-1-oxopropoxy)methoxy]phosphinyl]difluoromethyl]phenyl]-but-2-enoyl-Haic-(R)-4-aminopentamide] | Significant reduction | no effect | effectively inhibited colony formation | less effective | about 10 fold | no effect | inhibited invasion | more effective | –
CCCC[C@H](NC(=O)/C=C(\C)c1ccc(C(F)(F)P(=O)(OCOC(=O)C(C)(C)C)OCOC(=O)C(C)(C)C)cc1)C(=O)N1C[C@H]2CC2[C@H]1C(=O)N[C@@H](CCC(N)=O)[C@@H](C)OCc1ccccc1 (stereo partly drawn) [Example 16, (2E)-3-[4-[[bis[(2,2-dimethyl-1-oxopropoxy)methoxy]phosphinyl]difluoromethyl]phenyl]-but-2-enoyl-norleucinyl-(2S,3R,4S)-methanoprolinyl-(4S,5R)-4-amino-5-benzyloxyhexamide] | – | no effect | – | less effective | about 10 fold | – | – | – | somewhat more potent
